Here are results for one substance from paper PMC7126698 (Bioorganic & Medicinal Chemistry, 2008).

For the experiment, the system named is mature 3CL protease. The format is biochemical, SARS coronavirus.

On to “H-Thr-Ser-Ala-Val-Leu-Gln-Ser-Gly-Phe-Arg-Lys-NH2 [SO1]”, for which the “disappearance of SO1” value is reported as “completely disappeared within 1 h”.
